Reference: ChEMBL document CHEMBL4765244, “Synthesis, bioconversion, pharmacokinetic and pharmacodynamic evaluation of N-isopropyl-oxy-carbonyloxymethyl prodrugs of CZh-226, a potent and selective PAK4 inhibitor” (Eur J Med Chem, 2020)

Key:
[1] = Chemical stability of the compound in pH 6.8 simulated intestinal fluid assessed as compound remaining measured after 2 hrs by HPLC analysis; assay type: physicochemical
[2] = Chemical stability of the compound in pH 1.2 simulated gastric fluid buffer assessed as compound remaining measured after 2 hrs by HPLC analysis; assay type: physicochemical
[3] = Half life in Wistar rat assessed as (R)-(6-chloro-4-(5-cyclopropyl-1H-pyrazol-3-ylamino)quinazolin-2-yl)(3-methylpiperazin-1-yl)methanone hydrochloride at 12.43 mg/kg, po measured upto 24 hrs by LC/MS/MS analysis; assay type: ADME, organism-based; details: in vivo
[4] = Prodrug conversion in human plasma assessed as release of active metabolite (R)-(6-chloro-4-(5-cyclopropyl-1H-pyrazol-3-ylamino)quinazolin-2-yl)(3-methylpiperazin-1-yl)methanone hydrochloride measured within 120 mins at 37 degC by HPLC analysis; assay type: ADME, cell-free; details: 2 h
[5] = Stability of the compound in human plasma assessed as compound remaining measured within 120 mins at 37 degC by HPLC analysis; assay type: ADME, cell-free; details: read-out: Stabilty
[6] = AUC (0 to infinity) in Wistar rat assessed as (R)-(6-chloro-4-(5-cyclopropyl-1H-pyrazol-3-ylamino)quinazolin-2-yl)(3-methylpiperazin-1-yl)methanone hydrochloride at 12.43 mg/kg, po measured upto 24 hrs by LC/MS/MS analysis; assay type: ADME, organism-based; parameters: route oral, dose 12.43 mg/kg, time <=24; details: in vivo
[7] = Tmax in Wistar rat assessed as (R)-(6-chloro-4-(5-cyclopropyl-1H-pyrazol-3-ylamino)quinazolin-2-yl)(3-methylpiperazin-1-yl)methanone hydrochloride at 12.43 mg/kg, po measured upto 24 hrs by LC/MS/MS analysis; assay type: ADME, organism-based; details: in vivo
[8] = Chemical stability of the compound in pH 7.4 PBS buffer assessed as compound remaining measured after 2 hrs by HPLC analysis; assay type: physicochemical; details: read-out: Stabilty
[9] = Stability of the compound in rat liver S9 fraction assessed as compound remaining measured after 60 mins at 37 degC by LC-MS/MS analysis; assay type: ADME, subcellular; details: read-out: Stabilty
[10] = AUC in Wistar rat assessed as (R)-(6-chloro-4-(5-cyclopropyl-1H-pyrazol-3-ylamino)quinazolin-2-yl)(3-methylpiperazin-1-yl)methanone hydrochloride at 12.43 mg/kg, po measured upto 24 hrs by LC/MS/MS analysis; assay type: ADME, organism-based; parameters: route oral, dose 12.43 mg/kg, time <=24; details: in vivo
[11] = Cmax in Wistar rat assessed as (R)-(6-chloro-4-(5-cyclopropyl-1H-pyrazol-3-ylamino)quinazolin-2-yl)(3-methylpiperazin-1-yl)methanone hydrochloride at 12.43 mg/kg, po measured upto 24 hrs by LC/MS/MS analysis; assay type: ADME, organism-based; parameters: route oral, dose 12.43 mg/kg, time <=24; details: in vivo
[12] = Cmax in Wistar rat assessed as (R)-(6-chloro-4-(5-cyclopropyl-1H-pyrazol-3-ylamino)quinazolin-2-yl)(3-methylpiperazin-1-yl)methanone hydrochloride at 13.84 mg/kg, po measured upto 24 hrs by LC/MS/MS analysis; assay type: ADME, organism-based; parameters: route oral, dose 13.84 mg/kg, time <=24; details: in vivo
[13] = AUC (0 to infinity) in Wistar rat assessed as (R)-(6-chloro-4-(5-cyclopropyl-1H-pyrazol-3-ylamino)quinazolin-2-yl)(3-methylpiperazin-1-yl)methanone hydrochloride at 13.84 mg/kg, po measured upto 24 hrs by LC/MS/MS analysis; assay type: ADME, organism-based; parameters: route oral, dose 13.84 mg/kg, time <=24; details: in vivo
[14] = AUC in Wistar rat assessed as (R)-(6-chloro-4-(5-cyclopropyl-1H-pyrazol-3-ylamino)quinazolin-2-yl)(3-methylpiperazin-1-yl)methanone hydrochloride at 13.84 mg/kg, po measured upto 24 hrs by LC/MS/MS analysis; assay type: ADME, organism-based; parameters: route oral, dose 13.84 mg/kg, time <=24; details: in vivo
[15] = Half life in Wistar rat assessed as (R)-(6-chloro-4-(5-cyclopropyl-1H-pyrazol-3-ylamino)quinazolin-2-yl)(3-methylpiperazin-1-yl)methanone hydrochloride at 13.84 mg/kg, po measured upto 24 hrs by LC/MS/MS analysis; assay type: ADME, organism-based; details: in vivo
[16] = Tmax in Wistar rat assessed as (R)-(6-chloro-4-(5-cyclopropyl-1H-pyrazol-3-ylamino)quinazolin-2-yl)(3-methylpiperazin-1-yl)methanone hydrochloride at 13.84 mg/kg, po measured upto 24 hrs by LC/MS/MS analysis; assay type: ADME, organism-based; details: in vivo
[17] = AUC (0 to infinity) in Wistar rat assessed as (R)-(6-chloro-4-(5-cyclopropyl-1H-pyrazol-3-ylamino)quinazolin-2-yl)(3-methylpiperazin-1-yl)methanone hydrochloride at 14.18 mg/kg, po measured upto 24 hrs by LC/MS/MS analysis; assay type: ADME, organism-based; parameters: route oral, dose 14.18 mg/kg, time <=24; details: in vivo
[18] = Half life in Wistar rat assessed as (R)-(6-chloro-4-(5-cyclopropyl-1H-pyrazol-3-ylamino)quinazolin-2-yl)(3-methylpiperazin-1-yl)methanone hydrochloride at 14.18 mg/kg, po measured upto 24 hrs by LC/MS/MS analysis; assay type: ADME, organism-based; details: in vivo
[19] = Tmax in Wistar rat assessed as (R)-(6-chloro-4-(5-cyclopropyl-1H-pyrazol-3-ylamino)quinazolin-2-yl)(3-methylpiperazin-1-yl)methanone hydrochloride at 14.18 mg/kg, po measured upto 24 hrs by LC/MS/MS analysis; assay type: ADME, organism-based; details: in vivo
[20] = Cmax in Wistar rat assessed as (R)-(6-chloro-4-(5-cyclopropyl-1H-pyrazol-3-ylamino)quinazolin-2-yl)(3-methylpiperazin-1-yl)methanone hydrochloride at 14.18 mg/kg, po measured upto 24 hrs by LC/MS/MS analysis; assay type: ADME, organism-based; parameters: route oral, dose 14.18 mg/kg, time <=24; details: in vivo
[21] = AUC in Wistar rat assessed as (R)-(6-chloro-4-(5-cyclopropyl-1H-pyrazol-3-ylamino)quinazolin-2-yl)(3-methylpiperazin-1-yl)methanone hydrochloride at 14.18 mg/kg, po measured upto 24 hrs by LC/MS/MS analysis; assay type: ADME, organism-based; parameters: route oral, dose 14.18 mg/kg, time <=24; details: in vivo
[22] = Half life in Wistar rat at 2 mg/kg, iv measured upto 24 hrs by LC/MS/MS analysis; assay type: ADME, organism-based; details: in vivo
[23] = AUC (0 to infinity) in Wistar rat at 2 mg/kg, iv measured upto 24 hrs by LC/MS/MS analysis; assay type: ADME, organism-based; parameters: route intravenous, dose 2 mg/kg, time <=24; details: in vivo
[24] = AUC (0 to infinity) in Wistar rat at 10 mg/kg, po measured upto 24 hrs by LC/MS/MS analysis; assay type: ADME, organism-based; parameters: route oral, dose 10 mg/kg, time <=24; details: in vivo
[25] = Volume of distribution in Wistar rat at 2 mg/kg, iv measured upto 24 hrs by LC/MS/MS analysis; assay type: ADME, organism-based; details: in vivo
[26] = AUC in Wistar rat at 2 mg/kg, iv measured upto 24 hrs by LC/MS/MS analysis; assay type: ADME, organism-based; parameters: route intravenous, dose 2 mg/kg, time <=24; details: in vivo
[27] = Half life in Wistar rat at 10 mg/kg, po measured upto 24 hrs by LC/MS/MS analysis; assay type: ADME, organism-based; details: in vivo
[28] = Tmax in Wistar rat at 10 mg/kg, po measured upto 24 hrs by LC/MS/MS analysis; assay type: ADME, organism-based; details: in vivo
[29] = Clearance in Wistar rat at 2 mg/kg, iv measured upto 24 hrs by LC/MS/MS analysis; assay type: ADME, organism-based; details: in vivo
[30] = Cmax in Wistar rat at 10 mg/kg, po measured upto 24 hrs by LC/MS/MS analysis; assay type: ADME, organism-based; parameters: route oral, dose 10 mg/kg, time <=24; details: in vivo
[31] = AUC (0 to t) in Wistar rat at 10 mg/kg, po measured upto 24 hrs by LC/MS/MS; assay type: ADME, organism-based; parameters: route oral, dose 10 mg/kg, time <=24; details: in vivo
[32] = Oral bioavailability in Wistar rat assessed as (R)-(6-chloro-4-(5-cyclopropyl-1H-pyrazol-3-ylamino)quinazolin-2-yl)(3-methylpiperazin-1-yl)methanone hydrochloride at 10 mg/kg measured upto 24 hrs by LC/MS/MS analysis; assay type: ADME, organism-based; details: in vivo
[33] = Initial plasma concentration in Wistar rat at 2 mg/kg, iv measured upto 24 hrs by LC/MS/MS analysis; assay type: ADME, organism-based; details: in vivo

## CC(C)COC(=O)N1CCN(C(=O)c2nc(Nc3cc(C4CC4)[nH]n3)c3cc(Cl)ccc3n2)C[C@H]1C
[1]
  Stability: 88.8%
[2]
  Stability: 70.2%
[3]
  t1/2: 16.723 h
[4]
  Drug metabolism: 25.7%
[5]
  remaining at 2 h: 73.7%
[6]
  AUC: 111.2 ng·h/mL
[7]
  Tmax: 1.5 h
[8]
  remaining at 2 h: 99%
[9]
  remaining at 1 h: 61.1%
[10]
  AUC: 63.5 ng·h/mL
[11]
  Cmax: 7.4 ng/mL

## CC(OC(=O)C(C)C)OC(=O)N1CCN(C(=O)c2nc(Nc3cc(C4CC4)[nH]n3)c3cc(Cl)ccc3n2)C[C@H]1C (stereo not given in full)
[1]
  Stability: 88.6%
[2]
  Stability: 62.5%
[12]
  Cmax: 28.3 ng/mL
[4]
  Drug metabolism: 78.8%
[13]
  AUC: 59.6 ng·h/mL
[14]
  AUC: 50 ng·h/mL
[5]
  remaining at 2 h: 17.4%
[15]
  t1/2: 10.35 h
[16]
  Tmax: 4.98 min
[8]
  remaining at 2 h: 96.6%
[9]
  remaining at 1 h: 11%

## CC(C)OC(=O)N1CCN(C(=O)c2nc(Nc3cc(C4CC4)[nH]n3)c3cc(Cl)ccc3n2)C[C@H]1C
[1]
  Stability: 94.4%
[2]
  Stability: 70.2%
[4]
  Drug metabolism: 18.7%
[5]
  remaining at 2 h: 78.5%
[8]
  remaining at 2 h: 99%
[9]
  remaining at 1 h: 78.6%

## C[C@@H]1CN(C(=O)c2nc(Nc3cc(C4CC4)[nH]n3)c3cc(Cl)ccc3n2)CCN1C(=O)OCc1ccccc1
[1]
  Stability: 93.6%
[2]
  Stability: 84.7%
[4]
  Drug metabolism: 13.5%
[5]
  remaining at 2 h: 86.2%
[8]
  remaining at 2 h: 97.7%
[9]
  remaining at 1 h: 45.6%

## C[C@@H]1CN(C(=O)c2nc(Nc3cc(C4CC4)[nH]n3)c3cc(Cl)ccc3n2)CCN1C(=O)OCC(Cl)(Cl)Cl
[1]
  Stability: 88.2%
[2]
  Stability: 88.5%
[4]
  Drug metabolism: 16.3%
[5]
  remaining at 2 h: 79%
[8]
  remaining at 2 h: 98.7%
[9]
  remaining at 1 h: 78.9%

## C[C@@H]1CN(C(=O)c2nc(Nc3cc(C4CC4)[nH]n3)c3cc(Cl)ccc3n2)CCN1C(=O)OCOC(=O)C(C)(C)C
[1]
  Stability: 93%
[2]
  Stability: 83.9%
[12]
  Cmax: 2.8 ng/mL
[4]
  Drug metabolism: 94%
[13]
  AUC: 67.6 ng·h/mL
[14]
  AUC: 28.8 ng·h/mL
[5]
  remaining at 2 h: 0%
[15]
  t1/2: 30.204 h
[16]
  Tmax: 4.98 min
[8]
  remaining at 2 h: 97.7%
[9]
  remaining at 1 h: 47%

## C[C@@H]1CN(C(=O)c2nc(Nc3cc(C4CC4)[nH]n3)c3cc(Cl)ccc3n2)CCN1C(=O)OC(C)(C)C
[1]
  Stability: 90.2%
[2]
  Stability: 37.1%
[4]
  Drug metabolism: 20.7%
[5]
  remaining at 2 h: 73.7%
[8]
  remaining at 2 h: 99.1%
[9]
  remaining at 1 h: 71.3%

## CC(OC(=O)N1CCN(C(=O)c2nc(Nc3cc(C4CC4)[nH]n3)c3cc(Cl)ccc3n2)C[C@H]1C)OC(=O)C(C)(C)C (stereo not given in full)
[17]
  AUC: 44.2 ng·h/mL
[1]
  Stability: 88.7%
[18]
  t1/2: 8.378 h
[2]
  Stability: 92.2%
[4]
  Drug metabolism: 46.3%
[19]
  Tmax: 8 h
[20]
  Cmax: 3.9 ng/mL
[5]
  remaining at 2 h: 49.4%
[21]
  AUC: 35.1 ng·h/mL
[8]
  remaining at 2 h: 90.5%
[9]
  remaining at 1 h: 66.3%

## CCCCCOC(=O)N1CCN(C(=O)c2nc(Nc3cc(C4CC4)[nH]n3)c3cc(Cl)ccc3n2)C[C@H]1C
[1]
  Stability: 90.7%
[2]
  Stability: 88.4%
[4]
  Drug metabolism: 21.4%
[5]
  remaining at 2 h: 74.4%
[8]
  remaining at 2 h: 99.8%
[9]
  remaining at 1 h: 63.9%

## CCOC(=O)N1CCN(C(=O)c2nc(Nc3cc(C4CC4)[nH]n3)c3cc(Cl)ccc3n2)C[C@H]1C
[1]
  Stability: 92.9%
[2]
  Stability: 89.5%
[4]
  Drug metabolism: 14.8%
[5]
  remaining at 2 h: 85.3%
[8]
  remaining at 2 h: 97.7%
[9]
  remaining at 1 h: 48.5%

## COC(=O)N1CCN(C(=O)c2nc(Nc3cc(C4CC4)[nH]n3)c3cc(Cl)ccc3n2)C[C@H]1C
[1]
  Stability: 91.5%
[2]
  Stability: 95.2%
[4]
  Drug metabolism: 13.4%
[5]
  remaining at 2 h: 84.6%
[8]
  remaining at 2 h: 100%
[9]
  remaining at 1 h: 34.2%

## C[C@@H]1CN(C(=O)c2nc(Nc3cc(C4CC4)[nH]n3)c3cc(Cl)ccc3n2)CCN1.Cl
[22]
  half-life: 4.8 h
[23]
  AUC(0-inf): 1120 ng·h/mL
[24]
  AUC(0-inf): 108 ng·h/mL
[25]
  Vd: 12.4 L/kg
[5]
  remaining at 2 h: 97.4%
[26]
  AUC at 24 h: 1110 ng·h/mL
[27]
  half-life: 3.9 h
[28]
  Tmax: 4.98 min
[29]
  clearance: 29.7 mL/min/kg
[30]
  Cmax: 14.9 ng/mL
[31]
  AUC(0-t) at 24 h: 106 ng·h/mL
[9]
  remaining at 1 h: 53.9%
[32]
  F: 1.92%
[33]
  C0: 4520 ng/mL
